From patent US11116218B2, “Isoxazole compound or a salt thereof” (OAT AGRIO CO., LTD., priority 2017, dated 2021) come the findings set out here.

Usually mortality stands for the percentage killed. What is called inhibition is the change of the read-out against control, counted positive when it falls.

Assay [1] concerns two-spotted spider mites. The assay is described as follows: Miticidal test on two-spotted spider mite (leaf spray). It counts as in vivo. The conditions noted are these: Tetranychus urticae, in Phaseolus vulgaris, 48 h, read-out: Mortality of mites (%). An excerpt: A piece of non-woven fabric (4.5×5.5 cm) was suspended inside a plastic cup through an incision made in the lid of the plastic cup. After water was poured into the cup, the cup was covered with the lid. A kidney bean leaf (about 3.5×4.5 cm) was then placed on the sufficiently soaked, non-woven fabric. Another kidney bean leaf with two-spotted spider mites (about 30 mite samples) was placed on top of the first leaf, and the fabric and leaves were placed in a thermostatic chamber having a temperature of 25±2° C. and a humidity of 40% overnight. Next morning the top leaf was removed as the mite population had already moved to the lower leaf.
Miticidal formulations containing the compound of the invention (100 ppm and 5 ppm) were prepared by adding an aqueous solution (100 ppm) of Sorpol 355 (manufactured by Tobo Kagaku Co., Ltd.) to a methanol solution of the compound of the invention. These miticidal formulations were sprayed onto the leaves, and the leaves were air-dried and placed in a thermostatic chamber (25±2° C. and a humidity of 50%). The mortality rate of the two-spotted spider mites was calculated after 2 days.

In assay [2] the test system is two-spotted spider mites. The assay is described as follows: Ovicidal test on two-spotted spider mites. The conditions noted are these: Tetranychus urticae, 144 h; 10 ppm spray, ovicidal rate 6 days after spraying. It counts as in vivo, two-spotted spider mite. As to the method:
A piece of non-woven fabric (4.5×5.5 cm) was suspended inside a plastic cup through an incision made in the lid of the plastic cup. After water was poured into the cup, the cup was covered with the lid. A kidney bean leaf (about 3.5×4.5 cm) was then placed on the sufficiently soaked, non-woven fabric. Twenty female adults of two-spotted spider mite were placed on the top of the leaf, and the fabric and leaf were placed in a thermostatic chamber having a temperature of 25±2° C. and a humidity of 40% and 16L8D. The next day, after the number of the female adults was adjusted once more to 20, 2 mL of a miticidal formulation containing the compound of the invention (10 ppm) prepared in the same manner as in test example 1 was sprayed onto the leaf, and the leaf was air-dried and placed in a thermostatic chamber (25±2° C. and a humidity of 50%). The ovicidal rate of the two-spotted spider mites was calculated 6 days after the spraying of the miticidal formulation.

Regarding `Cc1cc(F)c(-c2cc(C(F)(F)F)on2)cc1SCC(F)(F)F` [Compound 1, 3-(2-fluoro-4-methyl-5-((2,2,2-trifluoroethyl)thio)phenyl)-5-(trifluoromethyl)isoxazole], in the assay on two-spotted spider mites [1], the mortality at 5 ppm is 30% and the mortality at 100 ppm turned out to be 100%.

On to `Cc1cc(F)c(-c2cc(C(F)(F)F)on2)cc1[S+]([O-])CC(F)(F)F` (stereo not drawn) [Compound 2, 3-(2-fluoro-4-methyl-5-((2,2,2-trifluoroethyl)sulfinyl)phenyl)-5-(trifluoromethyl)isoxazole], for which, in the assay with two-spotted spider mites [1], the mortality at 5 ppm was found to be 100% and the mortality at 100 ppm came out at 100%. In addition, 10 ppm produced 100% inhibition in the assay with two-spotted spider mites [2].

Regarding `Cc1cc(F)c(-c2cc(C(F)(F)C(F)(F)F)on2)cc1[S+]([O-])CC(F)(F)F` (stereo not drawn) [Compound 5, 3-(2-fluoro-4-methyl-5-((2,2,2-trifluoroethyl)sulfinyl)phenyl)-5-(perfluoroethyl)isoxazole], in the assay on two-spotted spider mites [1], the mortality at 5 ppm came out at 95% and the mortality at 100 ppm was 100%. In addition, 10 ppm produced 90% inhibition in the assay on two-spotted spider mites [2].

On to `Cc1cc(F)c(-c2cc(C(F)(F)C(F)(F)C(F)(F)F)on2)cc1[S+]([O-])CC(F)(F)F` (stereo not drawn) [Compound 8, 3-(2-fluoro-4-methyl-5-((2,2,2-trifluoroethyl)sulfinyl)phenyl)-5-(heptafluoropropyl)isoxazole], for which, in the assay with two-spotted spider mites [1], the mortality at 5 ppm stood at 100% and the mortality at 100 ppm stood at 100%. Also, in the assay with two-spotted spider mites [2], at 10 ppm the inhibition was 90%.

As to `Cc1cc(F)c(-c2cc(C(F)F)on2)cc1SCC(F)(F)F` [Compound 13, 5-(difluoromethyl)-3-(2-fluoro-4-methyl-5-((2,2,2-trifluoroethyl)thio)phenyl)isoxazole], in the assay with two-spotted spider mites [1], the mortality at 5 ppm is 48% and the mortality at 100 ppm came out at 100%. In the assay with two-spotted spider mites [2], the inhibition at 10 ppm is 98%.

As to `Cc1cc(F)c(-c2cc(C(F)F)on2)cc1[S+]([O-])CC(F)(F)F` (stereo not drawn) [Compound 14, 5-(difluoromethyl)-3-(2-fluoro-4-methyl-5-((2,2,2-trifluoroethyl)sulfinyl)phenyl)isoxazole], in the assay on two-spotted spider mites [1], the mortality at 5 ppm was 40% and the mortality at 100 ppm was determined as 100%. Besides, 10 ppm produced 50% inhibition in the assay on two-spotted spider mites [2].

Regarding `Cc1cc(F)c(-c2cc(C(F)(F)Cl)on2)cc1[S+]([O-])CC(F)(F)F` (stereo not drawn) [Compound 17, 5-(chlorodifluoromethyl)-3-(2-fluoro-4-methyl-5-((2,2,2-trifluoroethyl)sulfinyl)phenyl)isoxazole], in the assay with two-spotted spider mites [1], the mortality at 5 ppm amounted to 98% and the mortality at 100 ppm worked out at 100%. Also, in the assay on two-spotted spider mites [2], at 10 ppm the inhibition was 100%.

On to `Cc1cc(F)c(-c2cc(C(F)(F)c3ccccc3)on2)cc1SCC(F)(F)F` [Compound 19, 5-(difluoro(phenyl)methyl)-3-(2-fluoro-4-methyl-5-((2,2,2-trifluoroethyl)thio)phenyl)isoxazole], for which, in the assay with two-spotted spider mites [1], the mortality at 5 ppm turned out to be 100% and the mortality at 100 ppm was 100%. Further, the inhibition at 10 ppm with two-spotted spider mites [2] was found to be 100%.

As to `Cc1cc(F)c(-c2cc(C(F)(F)c3ccccc3)on2)cc1[S+]([O-])CC(F)(F)F` (stereo not drawn) [Compound 20, 5-(difluoro(phenyl)methyl)-3-(2-fluoro-4-methyl-5-((2,2,2-trifluoroethyl)sulfinyl)phenyl)isoxazole], in the assay on two-spotted spider mites [1], the mortality at 5 ppm was 93% and the mortality at 100 ppm stood at 100%. The same compound returned an inhibition at 10 ppm in the assay on two-spotted spider mites [2] of 95%.

For `Cc1cc(Cl)c(-c2cc(C(F)(F)F)on2)cc1SCC(F)(F)F` [Compound 22, 3-(2-chloro-4-methyl-5-((2,2,2-trifluoroethyl)thio)phenyl)-5-(trifluoromethyl)isoxazole], in the assay with two-spotted spider mites [1], the mortality at 5 ppm was determined as 73% and the mortality at 100 ppm was found to be 100%.

With `Cc1cc(Cl)c(-c2cc(C(F)(F)F)on2)cc1[S+]([O-])CC(F)(F)F` (stereo not drawn) [Compound 23, 3-(2-chloro-4-methyl-5-((2,2,2-trifluoroethyl)sulfinyl)phenyl)-5-(trifluoromethyl)isoxazole], in the assay on two-spotted spider mites [1], the mortality at 5 ppm is 100% and the mortality at 100 ppm came out at 100%. Besides, the inhibition at 10 ppm with two-spotted spider mites [2] worked out at 100%.

For `Cc1cc(C)c(-c2cc(C(F)(F)F)on2)cc1SCC(F)(F)F` [Compound 25, 3-(2,4-dimethyl-5-((2,2,2-trifluoroethyl)thio)phenyl)-5-(trifluoromethyl)isoxazole], in the assay with two-spotted spider mites [1], the mortality at 5 ppm turned out to be 10% and the mortality at 100 ppm is 100%.

As for `Cc1cc(C)c([S+]([O-])CC(F)(F)F)cc1-c1cc(C(F)(F)F)on1` (stereo not drawn) [Compound 26, 3-(2,4-dimethyl-5-((2,2,2-trifluoroethyl)sulfinyl)phenyl)-5-(trifluoromethyl)isoxazole], in the assay on two-spotted spider mites [1], the mortality at 5 ppm was found to be 98% and the mortality at 100 ppm stood at 100%. Further, the inhibition at 10 ppm in the assay on two-spotted spider mites [2] turned out to be 90%.

In the case of `CCC[S+]([O-])c1cc(-c2cc(C(F)(F)F)on2)c(F)cc1C` (stereo not drawn) [Compound 35, 3-(2-fluoro-4-methyl-5-(propylsulfinyl)phenyl)-5-(trifluoromethyl)isoxazole], in the assay with two-spotted spider mites [1], the mortality at 5 ppm stood at 100% and the mortality at 100 ppm turned out to be 100%. Moreover, at 10 ppm the inhibition in the assay on two-spotted spider mites [2] was 100%.

On to `Cc1cc(F)c(-c2noc(C(F)(F)F)c2C)cc1[S+]([O-])CC(F)(F)F` (stereo not drawn) [Compound 38, 3-(2-fluoro-4-methyl-5-((2,2,2-trifluoroethyl)sulfinyl)phenyl)-4-methyl-5-(trifluoromethyl)isoxazole], for which, in the assay with two-spotted spider mites [1], the mortality at 5 ppm is 100% and the mortality at 100 ppm came out at 100%. Also, testing at 10 ppm with two-spotted spider mites [2] gave an inhibition of 100%.

Turning to `Cc1cc(C)c(-c2cc(C(F)(F)c3ccccc3)on2)cc1SCC(F)(F)F` [Compound 40, 5-(difluoro(phenyl)methyl)-3-(2,4-dimethyl-5-((2,2,2-trifluoroethyl)thio)phenyl)isoxazole], in the assay on two-spotted spider mites [1], the mortality at 5 ppm was determined as 33% and the mortality at 100 ppm worked out at 100%. Further, at 10 ppm the inhibition in the assay on two-spotted spider mites [2] was 89%.

As for `Cc1cc(Cl)c(-c2cc(C(F)(F)Cl)on2)cc1SCC(F)(F)F` [Compound 43, 3-(2-chloro-4-methyl-5-((2,2,2-trifluoroethyl)thio)phenyl)-5-(chlorodifluoromethyl)isoxazole], in the assay on two-spotted spider mites [1], the mortality at 5 ppm is 100% and the mortality at 100 ppm stood at 100%. This compound had an inhibition at 10 ppm with two-spotted spider mites [2] of 100%.

Regarding `Cc1cc(Cl)c(-c2cc(C(F)(F)Cl)on2)cc1[S+]([O-])CC(F)(F)F` (stereo not drawn) [Compound 44, 3-(2-chloro-4-methyl-5-((2,2,2-trifluoroethyl)sulfinyl)phenyl)-5-(chlorodifluoromethyl)isoxazole], in the assay with two-spotted spider mites [1], the mortality at 5 ppm is 100% and the mortality at 100 ppm was determined as 100%. Also, the inhibition at 10 ppm in the assay with two-spotted spider mites [2] worked out at 100%.

For the compound `Cc1cc(C)c(-c2cc(C(F)F)on2)cc1SCC(F)(F)F` [Compound 46, 5-(difluoromethyl)-3-(2,4-dimethyl-5-((2,2,2-trifluoroethyl)thio)phenyl)isoxazole], in the assay on two-spotted spider mites [1], the mortality at 5 ppm turned out to be 79% and the mortality at 100 ppm came to 100%. In the assay with two-spotted spider mites [2], this compound displayed an inhibition at 10 ppm of 83%.

Take `Cc1cc(C)c([S+]([O-])CC(F)(F)F)cc1-c1cc(C(F)F)on1` (stereo not drawn) [Compound 47, 5-(difluoromethyl)-3-(2,4-dimethyl-5-((2,2,2-trifluoroethyl)sulfinyl)phenyl)isoxazole]: in the assay with two-spotted spider mites [1], the mortality at 5 ppm turned out to be 51% and the mortality at 100 ppm is 100%. The inhibition at 10 ppm in the assay with two-spotted spider mites [2] is 80%.

With `Cc1cc(C)c(-c2cc(C(F)(F)Cl)on2)cc1SCC(F)(F)F` [Compound 49, 5-(chlorodifluoromethyl)-3-(2,4-dimethyl-5-((2,2,2-trifluoroethyl)thio)phenyl)isoxazole], in the assay on two-spotted spider mites [1], the mortality at 5 ppm was 6% and the mortality at 100 ppm was determined as 100%. Moreover, the inhibition at 10 ppm in the assay on two-spotted spider mites [2] came out at 0%.

Take `Cc1cc(C)c([S+]([O-])CC(F)(F)F)cc1-c1cc(C(F)(F)Cl)on1` (stereo not drawn) [Compound 50, 5-(chlorodifluoromethyl)-3-(2,4-dimethyl-5-((2,2,2-trifluoroethyl)sulfinyl)phenyl)isoxazole]: in the assay with two-spotted spider mites [1], the mortality at 5 ppm turned out to be 96% and the mortality at 100 ppm stood at 100%. The compound further came in with an inhibition at 10 ppm in the assay with two-spotted spider mites [2] of 97%.

With `Cc1cc(Cl)c(-c2cc(C(F)(F)c3ccccc3)on2)cc1SCC(F)(F)F` [Compound 52, 3-(2-chloro-4-methyl-5-((2,2,2-trifluoroethyl)thio)phenyl)-5-(difluoro(phenyl)methyl)isoxazole], in the assay on two-spotted spider mites [1], the mortality at 5 ppm was 61% and the mortality at 100 ppm was found to be 100%. Also, at 10 ppm the inhibition with two-spotted spider mites [2] was 32%.

Turning to `Cc1cc(Cl)c(-c2cc(C(F)(F)c3ccccc3)on2)cc1[S+]([O-])CC(F)(F)F` (stereo not drawn) [Compound 53, 3-(2-chloro-4-methyl-5-((2,2,2-trifluoroethyl)sulfinyl)phenyl)-5-(difluoro(phenyl)methyl)isoxazole], in the assay with two-spotted spider mites [1], the mortality at 5 ppm was 64% and the mortality at 100 ppm was found to be 100%. In the assay on two-spotted spider mites [2], this compound showed an inhibition at 10 ppm of 90%.
